For orientation: Ki means a measure of affinity in units of concentration, obtained from inhibition or displacement. Low readings indicate tighter binding, high ones weaker binding.

For this assay, the target named is T1, human melanin concentrating hormone receptor (MCHR1) (Homo sapiens, UniProt Q99705, A5T/E4Q).
T1 construct: expressed in transfected cells; host or cells: HEK-293 (stably transfected), membranes
T1 sequence (Q99705 whole entry E4Q/A5T): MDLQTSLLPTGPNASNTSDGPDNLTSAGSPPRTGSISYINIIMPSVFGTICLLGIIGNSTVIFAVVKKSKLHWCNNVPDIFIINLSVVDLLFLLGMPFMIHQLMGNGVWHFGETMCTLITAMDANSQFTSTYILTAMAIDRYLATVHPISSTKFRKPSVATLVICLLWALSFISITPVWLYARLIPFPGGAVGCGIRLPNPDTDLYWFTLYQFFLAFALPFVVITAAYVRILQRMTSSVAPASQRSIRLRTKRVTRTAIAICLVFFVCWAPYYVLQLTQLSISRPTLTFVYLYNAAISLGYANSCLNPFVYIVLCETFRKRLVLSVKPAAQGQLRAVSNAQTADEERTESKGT
Briefly: Radioligand binding assay for assessment of MCHR1 activity. To be noted: membranes from HEK-293 cells expressing mutated (E4Q, AST) hMCHR1; competition with 0.06-0.1 nM [Phe13,[125I]Tyr19]-MCH, 90 min. As for the experimental part:
Compounds of Formula I were initially characterized in an in vitro binding assay to determine their Ki or ability to antagonize binding of a peptide agonist to the human melanin concentrating hormone receptor (MCHR1).
Membranes from stably transfected HEK-293 cells expressing a mutated (E4Q, AST) hMCHR1 receptor were prepared by dounce homogenization and differential centrifugation. Binding experiments were carried out with 0.5-1.0 ug of membrane protein incubated in a total of 0.2 ml in 25 mM HEPES (pH 7.4) with 10 mM MgCl2, 2 mM EGTA, and 0.1% BSA (Binding Buffer) for 90 min. For competition binding assays, reactions were carried out in the presence of with 0.06-0.1 nM [Phe^13, [^125I]Tyr^19]-MCH and increasing concentrations of unlabeled test molecules. Reactions were terminated by rapid vacuum filtration over 96 well-GFC Unifilter plates pre-coated with 0.075 ml binding buffer containing 1% BSA, and washed 3 times with 0.4 ml of Phospho-buffered Saline (pH 7.4) containing 0.01% TX-100. Filters were dried; 0.05 ml microscint 20 was added to each well and radioactivity was subsequently quantified by scintillation counting on a TOPCOUNT® microplate scintillation counter (Packard). Inhibitory constants were determined by nonlinear least squares analysis using a four parameter logistic equation.
As for `COc1cc(-n2ncc(CSc3ccc(Cl)cc3)cc2=O)ccc1OCC(C)(C)O` [Example E1, 5-((4-Chlorophenylthio)methyl)-2-(4-(2-hydroxy-2-methylpropoxy)-3-methoxyphenyl)pyridazin-3(2H)-one], affinity was put at a Ki of 1060 nM. Under `COc1cc(-n2ccc(C#Cc3ccccc3)nc2=O)ccc1OCC(C)(C)O` [Example B1, 1-(4-(2-Hydroxy-2-methylpropoxy)-3-methoxyphenyl)-4-(phenylethynyl)pyrimidin-2(1H)-one] stands 39 nM; under `Cc1cc(-n2ccc(NCc3ccc(Cl)cc3)nc2=O)ccc1OCC(C)(C)O` [Example A17], 458 nM. For `COc1cc(-n2ccc(OCc3ccc(Cl)c(Cl)c3)nc2=O)ccc1OCC(C)(C)O` [Example A13], the affinity corresponds to a Ki of 1150 nM. Compared with the last compound, the Ki is about 2.5-fold higher. Under `COc1cc(-n2ccc(SCc3ccc(Cl)cc3)nc2=O)ccc1OCC(C)(C)O` [Example A1, 4-(4-Chlorobenzylthio)-1-(4-(2-hydroxy-2-methylpropoxy)-3-methoxyphenyl)pyrimidin-2(1H)-one] stands 41 nM.

`COc1cc(-n2ncc(C#Cc3ccccc3)cc2=O)ccc1OCC(O)C1CC1` (stereo not drawn) [Example D2] gave a Ki of 37 nM. The Ki values of the last two compounds are within 1.5-fold of each other. In the case of `COc1cc(-n2ccc(COc3ccccc3F)nc2=O)ccc1OCC(C)(C)O` [Example C5] it was 2200 nM; in that of `COc1cc(-n2cnc(OCc3ccc(Cl)cc3)cc2=O)ccc1OCC(C)(C)O` [Example H1, 6-(4-Chlorobenzyloxy)-3-(4-(2-hydroxy-2-methylpropoxy)-3-methoxyphenyl)pyrimidin-4(3H)-one], 35 nM; in that of `COc1cc(-n2cnc(CSc3ccc(F)cc3)cc2=O)ccc1OCC(C)(C)O` [Example G3], 378 nM. Consider `COc1cc(-n2cnc(SCc3ccc(Cl)cc3)cc2=O)ccc1OCC(O)C1CC1` (stereo not drawn) [Example H6], for which the Ki is 11 nM. In the case of `COc1cc(-n2cnc(/C=C/c3ccc(Cl)cc3)cc2=O)ccc1OCC(C)(C)O` [Example J1, (E)-6-(4-Chlorostyryl)-3-(4-(2-hydroxy-2-methylpropoxy)-3-methoxyphenyl)pyrimidin-4(3H)-one], the affinity, expressed as Ki, was 23 nM.

`COc1cc(-n2cnc(SCc3ccc(Cl)cc3)cc2=O)ccc1OCC(C)(C)O` [Example H2] displayed a Ki of 7 nM. Against the preceding compound, the Ki is about 3.3-fold lower.

For the origin of these results see patent US8278316B2, “Aza pyridone analogs useful as melanin concentrating hormone receptor-1 antagonists” (Bristol-Myers Squibb Company, priority 2009, dated 2012).
